PMC6480424, “Hydrophobic Amines and Their Guanidine Analogues Modulate Activation and Desensitization of ASIC3” (International Journal of Molecular Sciences, 2019)
Each block holds one molecule with its values, some of them ahead of it.

Assays:
Assay type in all cases: cell-based
[1] = biological target: T1, ASIC3 (acid-sensing ion channel 3) (Rattus norvegicus, UniProt O35240); assay: whole-cell patch clamp, peak inhibition and sustained potentiation, on/tail currents
T1 construct: homomeric rat ASIC3 expressed in CHO cells
T1 sequence (O35240 1-533): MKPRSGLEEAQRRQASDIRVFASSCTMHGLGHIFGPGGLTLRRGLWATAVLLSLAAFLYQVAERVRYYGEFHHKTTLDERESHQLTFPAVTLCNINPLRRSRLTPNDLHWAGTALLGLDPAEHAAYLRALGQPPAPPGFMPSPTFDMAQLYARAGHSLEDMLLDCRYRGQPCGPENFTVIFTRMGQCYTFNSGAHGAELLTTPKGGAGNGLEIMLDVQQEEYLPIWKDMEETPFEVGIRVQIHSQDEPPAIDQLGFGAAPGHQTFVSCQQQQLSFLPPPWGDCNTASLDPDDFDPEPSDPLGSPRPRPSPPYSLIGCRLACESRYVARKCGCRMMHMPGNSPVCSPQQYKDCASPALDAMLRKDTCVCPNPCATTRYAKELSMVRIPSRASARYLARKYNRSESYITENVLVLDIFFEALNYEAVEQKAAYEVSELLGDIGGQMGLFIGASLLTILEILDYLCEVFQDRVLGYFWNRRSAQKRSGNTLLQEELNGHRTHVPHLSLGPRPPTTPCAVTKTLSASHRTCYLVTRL

[2] = biological target: T1, ASIC3 (acid-sensing ion channel 3); assay: whole-cell patch clamp, sustained current potentiation by […] at pH […]; conditions: read-out: % potentiation at 0.5 mM
[3] = biological target: T1, ASIC3 (acid-sensing ion channel 3); assay: whole-cell patch clamp, sustained current inhibition by […] at pH […]; conditions: read-out: % inhibition at 0.5 mM
[4] = biological target: T1, ASIC3 (acid-sensing ion channel 3); assay: whole-cell patch clamp, sustained current inhibition at pH […]
[5] = biological target: T1, ASIC3 (acid-sensing ion channel 3); assay: whole-cell patch clamp, peak current inhibition at pH […]
[6] = biological target: T1, ASIC3 (acid-sensing ion channel 3); assay: whole-cell patch clamp at […], acidic shift of activation

SMILES: Nc1c2ccccc2nc2ccccc12 [9AA, 9-aminoacridine]
whole-cell patch clamp, peak inhibition and sustained potentiation, on/tail curr [1]: 9-Aminoacridine and IEM-2044, which inhibit peak and potentiate the sustained component of the response

SMILES: NCCC1(c2ccccc2)CCCCC1 [IEM-2044]
whole-cell patch clamp, peak inhibition and sustained potentiation, on/tail curr [1]: 9-Aminoacridine and IEM-2044, which inhibit peak and potentiate the sustained component of the response

SMILES: NC1c2ccccc2-c2ccccc21 [IEM-2117]
activation at 500 µM [2]: 498 ± 196%

SMILES: CN(C)CCC=C1c2ccccc2CCc2ccccc21 [amitriptyline]
whole-cell patch clamp at 500 μM, acidic shift of activation [6]: IEM-2044 and amitriptyline have opposite effects on different channels, inducing an alkaline shift of activation on ASIC1a

Results, then the molecule that gave them:

inhibition at 500 µM [3]: 29 ± 4%
SMILES: N=C(N)NC12CC3CC(CC(C3)C1)C2 [IEM-2151]

IC50 [4]: 117 ± 5.6 µM
SMILES: CC12CC3CC(C)(C1)CC(NC(=N)N)(C3)C2 [IEM-2163]

IC50 [5]: 21 ± 15 µM
SMILES: N=C(N)NCCC1(c2ccccc2)CCCCC1 [IEM-2195]
